In patent US8183236B2, “Compounds with HIV-1 integrase inhibitory activity and use thereof as anti-HIV/AIDS therapeutics” (University of Southern California, priority 2007, dated 2012) one finds IC50 data, which are given here for 42 compounds.

Assay [1] addresses T1, HIV-1 integrase (wild-type IN) (Human immunodeficiency virus type 1 group M subtype B, UniProt P12497). The experiment in a line: HIV-1 integrase 3′-processing assay (32P-labeled 21-mer, gel). Format: biochemical. An excerpt: (§1) The oligonucleotides 21 top, 5′-[…]-3′ (SEQ ID NO:1) and 21 bot, 5′-[…]-3′ (SEQ ID NO:2) were purchased from Norris Cancer Center Core Facility (University of Southern California) and purified by UV shadowing on polyacrylamide gel. To analyze the extent of 3′-processing and strand transfer using 5′-end labeled substrates, 21 top was 5′-end labeled using T4 polynucleotide kinase (Epicentre, Madison, Wis.) and γ [^32P]-ATP (Amersham Biosciences or ICN). The kinase was heat-inactivated and 21 bot was added in 1.5-molar excess. The mixture was heated at 95° C., allowed to cool slowly to room temperature, and run through a spin 25 mini-column (USA Scientific) to separate annealed double-stranded oligonucleotide from unincorporated material.
(§2) To determine the extent of 3′-processing and strand transfer, wild-type IN was preincubated at a final concentration of 200 nM with the inhibitor in reaction buffer (50 mM NaCl, 1 mM HEPES, pH 7.5, 50 μM EDTA, 50 μM dithiothreitol, 10% glycerol (w/v), 7.5 mM MnCl2, 0.1 mg/ml bovine serum albumin, 10 mM 2-mercaptoethanol, 10% dimethyl sulfoxide, and 25 mM MOPS, pH 7.2) at 30° C. for 30 min. Then, 20 nM of the 5′-end ^32P-labeled linear oligonucleotide substrate was added, and incubation was continued for an additional one hour. Reactions were quenched by the addition of an equal volume (16 μl) of loading dye (98% deionized formamide, 10 mM EDTA, 0.025% xylene cyanol and 0.025% bromophenol blue). An aliquot (5 μl) was electrophoresed on a denaturing 20% polyacrylamide gel (0.09 M tris-borate pH 8.3, 2 mM EDTA, 20% acrylamide, 8M urea).
(§3) Gels were dried, exposed in a PhosphorImager cassette, and analyzed using a Typhoon 8610 Variable Mode Imager (Amersham Biosciences) and quantitated using ImageQuant 5.2. Percent inhibition (% I) was calculated using the following equation: %I=100×[1−(D−C)/(N−C)]
(§4) where C, N, and D are the fractions of 21-mer substrate converted to 19-mer (3′-processing product) or strand transfer products for DNA alone, DNA plus IN, and IN plus drug, respectively. The IC50 values were determined by plotting the logarithm of drug concentration versus percent inhibition to obtain concentration that produced 50% inhibition. […]

The target of assay [2] is T1, HIV-1 integrase (wild-type IN). Kind of assay: HIV-1 integrase strand transfer assay (32P-labeled 21-mer, gel). Format: biochemical.
Text: as §1, §2, §3, §4

[3] abbreviates: unit inferred, read-out: IN inhibition activity 3′-processing.
Where [4] appears, read: unit inferred, read-out: IN inhibition activity Strand transfer.
[5] abbreviates: wild-type IN 200 nM, 7.5 mM MnCl2, read-out: Inhibition of IN Catalytic Activities IC50 (μM) 3′-processing.
Setting [6] is: wild-type IN 200 nM, 7.5 mM MnCl2, read-out: Inhibition of IN Catalytic Activities IC50 (μM) Strand Transfer.
Setting [7] is: unit inferred, read-out: HIV-1 IN Inhibitory Activities 3′-processing.
Where [8] appears, read: unit inferred, read-out: HIV-1 IN Inhibitory Activities Strand transfer.

For `O=C(Nc1ccccc1C(=O)O)c1cccc(S(=O)(=O)Nc2ccc(Oc3ccccc3)cc2)c1` [GLD25], the IC50 in assay [1] (Table 53, structurally diverse compounds, read-out: IN inhibition activity 3′-processing) is 42 ± 10 µM; in assay [2] (Table 53, structurally diverse compounds, read-out: IN inhibition activity Strand transfer) it was 18 ± 3 µM.
For `O=C(CSc1nnc(Cc2ccccc2)n1C1CCCCC1)NNC(=O)c1ccccc1O` [AS9A4], the IC50 in assay [1] (setting [3]) amounted to 21 ± 2 µM; in assay [2] (setting [4]) it was 17 ± 1 µM.
For the compound `COc1cc(/C=C2/SC(=S)N(CC(=O)O)C2=O)ccc1OC(=O)c1ccc(F)cc1` [OT9], the IC50 in assay [1] (setting [5]) was more than 100 µM; in assay [2] (setting [6]) it was 97 ± 5 µM.
`COc1ccc(O)c(/C=N/NC(=O)CSc2nnc(-c3ccncc3)n2-c2ccccc2)c1` [MC41]: the IC50 in assay [1] (setting [3]) and in assay [2] (setting [4]) was more than 100 µM each time.
With `O=C(O)c1ccc(S(=O)(=O)c2ccc3c(c2)C(=O)N(c2ccc(O)c(C(=O)O)c2)C3=O)cc1` [Compound X125], the IC50 in assay [1] (setting [5]) worked out at 66 ± 6 µM; in assay [2] (setting [6]), 44 ± 4 µM.
With `O=C(O)c1cc(NC(=O)c2cccc3ccccc23)c(C(=O)O)cc1NC(=O)c1cccc2ccccc12` [Compound X8], the IC50 in assay [1] (setting [5]) came to 28 µM; in assay [2] (setting [6]), 21 µM.
Turning to `O=C(Nc1ccc(O)c(-c2nc3ccccc3o2)c1)c1cccc2ccccc12` [XR21], the IC50 in assay [1] (setting [7]) stood at 14 µM; in assay [2] (setting [8]), 6 µM.
Consider `COc1ccccc1-n1c(SCC(=O)NNC(=O)c2ccccc2O)nnc1-c1ccccc1O` [AS9A6], for which the IC50 in assay [1] (setting [3]) came out at 8 ± 1 µM; in assay [2] (setting [4]) it was 6 ± 1 µM.
For `Nc1c(C(=O)Nc2ccc(Cl)c(Cl)c2)sc2[nH]c(=O)c(C(=O)O)cc12` [GLD44], the IC50 in assay [1] (setting [3]) was 14 ± 6 µM; in assay [2] (setting [4]) it was 5 ± 4 µM.
For the compound `CCOC(=O)c1sc(N2C(=O)C(O)=C(C(=O)c3ccc(C)cc3)C2c2ccc(F)cc2)nc1C` (centres unmarked) [Compound M28A18], the IC50 was more than 100 µM in assay [1] (setting [3]) and 33 ± 25 µM in assay [2] (setting [4]).
As to `COC(=O)c1ccccc1-c1ccc(/C=C(\C#N)c2nc3ccccc3[nH]2)o1` [AV15A46], the IC50 in assay [1] (setting [3]) and in assay [2] (setting [4]) was more than 100 µM in each case.
`O=C(CSc1nnc(-c2ccccc2)n1Cc1ccccc1)NNC(=O)c1ccccc1O` [AS90]: the IC50 in assay [1] (setting [3]) worked out at 21 ± 6 µM; in assay [2] (setting [4]) it was 9 ± 7 µM.
With `O=C(O)CCN1C(=O)/C(=C\c2ccc(-c3cccc(Cl)c3)o2)SC1=S` [RT23], the IC50 in assay [1] (setting [5]) is more than 100 µM; in assay [2] (setting [6]), 21 µM.
In the case of `O=C(CSc1nnnn1-c1ccccc1)NNC(=O)c1ccc(O)cc1O` [AS9A8], the IC50 was found to be 68 ± 3 µM in assay [1] (setting [3]) and 61 ± 6 µM in assay [2] (setting [4]).
Turning to `COc1ccc(C2C(C(=O)c3ccc(Br)cc3)=C(O)C(=O)N2CCc2ccccc2)cc1OC` (centres unmarked) [AS143], the IC50 in assay [1] (setting [3]) was 60 ± 3 µM; in assay [2] (setting [4]), 42 ± 10 µM.
As for `COc1cc(/C=C2/SC(=S)N(CCC(=O)O)C2=O)ccc1OC(=O)c1ccccc1` [OT17], the IC50 in assay [1] (setting [5]) turned out to be 42 ± 20 µM; in assay [2] (setting [6]) it was 27 ± 11 µM.
Consider `C=CCn1c(=O)c(C(=O)Nc2ccccc2S(N)(=O)=O)c(O)c2ccccc21` [XR7], for which the IC50 was 83 µM in assay [1] (setting [5]) and 45 µM in assay [2] (setting [6]).
In the case of `O=C(Cc1ccc(F)cc1)N/N=C/c1ccc(-c2ccc(Cl)c(C(=O)O)c2)o1` [AV15A47], the IC50 in assay [1] (setting [3]) and in assay [2] (setting [4]) was more than 100 µM each time.
Take `COc1ccc2oc(=O)c(-c3csc(N/N=C/c4ccco4)n3)cc2c1` [Compound X144]: the figures for the IC50 in assay [1] (setting [7]) and in assay [2] (setting [8]) were 78 µM and 29 µM, respectively.
Consider `O=C(CSc1nnc(-c2ccc(Cl)cc2)n1-c1ccccc1)NNC(=O)c1ccccc1O` [AS9A9], for which the IC50 was determined as 11 ± 3 µM in assay [1] (setting [3]) and 5 ± 1 µM in assay [2] (setting [4]).
`Cc1ccc(-n2c(SCC(=O)NNC(=O)c3ccccc3O)nnc2-c2ccccc2O)cc1` [AS9]: the IC50 was found to be 5 ± 2 µM in assay [1] (setting [3]) and 3 ± 1 µM in assay [2] (setting [4]).
For the compound `O=C(c1ccccc1)c1cc(Br)ccc1NC(=O)c1nc[nH]c1C(=O)O` [Example X160], the IC50 in assay [1] (setting [7]) was determined as 16 µM; in assay [2] (setting [8]) it was 17 µM.
Take `CCOc1ccc2c(c1)C(=C1SC(C(=O)OC)=C(C(=O)OC)S1)C(=S)C(C)(C)N2C(=O)c1ccccc1F` [OT2]: the IC50 in assay [1] (setting [5]) is more than 100 µM; in assay [2] (setting [6]), 95 ± 9 µM.
As to `O=C(N/N=C/c1ccc(-c2ccc(O)c(C(=O)O)c2)o1)c1cccnc1` [SA1], the IC50 in assay [1] (setting [3]) was 59 ± 1 µM; in assay [1] (setting [5]), 59 µM; in assay [2] (setting [4]), 9 ± 5 µM; in assay [2] (setting [6]), 9 µM.
For the compound `O=C(O)c1cc(-c2ccc(/C=C/c3cc(C(F)(F)F)[nH]c(=O)n3)o2)ccc1Cl` [AV15A12], the IC50 was 74 ± 32 µM in assay [1] (setting [3]) and 50 ± 25 µM in assay [2] (setting [4]).
With `Cc1nnc(N/N=C/c2ccc(-c3ccccc3C(=O)O)o2)n1N` [AV15A37], the IC50 in assay [1] (setting [3]) and in assay [2] (setting [4]) was more than 100 µM each time.
`O=C(O)c1cc(-c2ccc(/C=c3\sc4nc5ccccc5n4c3=O)o2)ccc1Cl` [AV15A22]: the values for the IC50 in assay [1] (setting [3]) and in assay [2] (setting [4]) were 23 ± 3 µM and 15 ± 4 µM, respectively.
As for `COc1ccc(/C=C2\C(=O)N(c3nnn[nH]3)N=C2C)cc1OCc1ccccc1Cl` [GLD12], the IC50 in assay [1] (Table 54, read-out: IN inhibition activity 3′-processing) was 14 ± 7 µM; in assay [2] (Table 54, read-out: IN inhibition activity Strand transfer), 5 ± 3 µM.
Regarding `CCOc1ccc(C(=O)C2=C(O)C(=O)N(c3nccs3)C2c2ccc(O)c(OC)c2)cc1` (centres unmarked) [AS161], the IC50 in assay [1] (setting [3]) came to 57 ± 27 µM; in assay [2] (setting [4]), 30 ± 7 µM.
Take `N=C1NC(=O)/C(=C\c2ccc(-c3cccc(C(=O)O)c3)o2)S1` [AV15A2]: the IC50 in assay [1] (setting [3]) was more than 100 µM; in assay [2] (setting [4]), 90 ± 17 µM.
As for `COc1ccccc1C(=O)Nc1ccc(O)c(-c2nc3cc(C)ccc3o2)c1` [XR22], the IC50 in assay [1] (setting [7]) and in assay [2] (setting [8]) was less than 100 µM throughout.
With `Oc1ccccc1/C=N/CC(O)C/N=C/c1ccccc1O` [Example X208], the IC50 in assay [1] (setting [7]) turned out to be 97 µM; in assay [2] (setting [8]) it was 61 µM.
Take `Cc1ccc(C=C2SC(=S)N(CC(=O)Nc3cccc(C(=O)O)c3)C2=O)cc1` [Compound X97]: the IC50 in assay [1] (setting [5]) was 98 ± 4 µM; in assay [2] (setting [6]), more than 100 µM.
Consider `CCOC(=O)N1CCN(C(=O)CCN2C(=O)/C(=C/c3ccc(OC)c(OC)c3)SC2=S)CC1` [Compound X90], for which the IC50 in assay [1] (setting [5]) and in assay [2] (setting [6]) was more than 100 µM each time.
For `O=C(NC(=S)N1CCN(c2cc3c(cc2F)c(=O)c(C(=O)O)cn3C2CC2)CC1)c1ccc(Cl)cc1` [ROM3A9], the IC50 stood at 80 µM in assay [1] (setting [5]) and 53 µM in assay [2] (setting [6]).
As to `COc1cc(C(=O)Nc2ccc(O)c(C(=O)O)c2)cc(OC)c1OC` [Compound X108], the IC50 in assay [1] (setting [5]) and in assay [2] (setting [6]) was more than 100 µM in each case.
Turning to `O=C1/C(=C/c2ccc(O)cc2O)SC(=S)N1c1ccccc1` [Compound X221], the IC50 in assay [1] (setting [5]) and in assay [2] (setting [6]) was more than 100 µM throughout.
Regarding `O=C(C1=C(O)C(=O)N(c2nc3ccccc3s2)C1c1cccnc1)c1ccc(Cl)cc1` (centres unmarked) [Compound M28A21], the values for the IC50 in assay [1] (setting [3]) and in assay [2] (setting [4]) were more than 100 µM and 90 ± 10 µM, respectively.
As for `O=C(CN1C(=O)C(=Cc2ccccc2Cl)SC1=S)Nc1cc([N+](=O)[O-])ccc1O` [Compound X194], the IC50 in assay [1] (setting [5]) came out at 20 ± 7 µM; in assay [2] (setting [6]) it was 18 ± 11 µM.
As to `CCOc1cc(/C=C2\SC(=S)N(NC(=O)c3ccccc3O)C2=O)ccc1O` [Compound X223], the results for the IC50 in assay [1] (setting [5]) and in assay [2] (setting [6]) were 70 ± 27 µM and 38 ± 14 µM, respectively.
For `O=C(NC1CC1)c1c[nH]c2ccc(S(=O)(=O)Nc3cccc(C(F)(F)F)c3)cc2c1=O` [ROM3A10], the results for the IC50 in assay [1] (setting [5]) and in assay [2] (setting [6]) were 93 µM and 92 µM, respectively.
The corresponding values for `O=C(CCN1C(=O)C(=Cc2cccs2)SC1=S)Nc1ccc(O)c(C(=O)O)c1` [Compound X172] are 38 ± 16 µM and 38 ± 16 µM.
